Reference: the kinase profiling compilation of Christmann-Franck et al. (2016)

How the values were obtained:
Assay in all cases: KINOMEscan competition binding
Details in all cases: compound 10.0 µM
[1] = target: ULK3 (human) (UniProt Q6PHR2)
[2] = target: ITK (human) (UniProt Q08881)
[3] = target: MAP2K1 (human) (UniProt Q02750)
[4] = target: MUSK (human) (UniProt O15146)
[5] = target: PIK3C2B (human) (UniProt O00750)
[6] = target: FGR (human) (UniProt P09769)
[7] = target: CDK3 (human) (UniProt Q00526)
[8] = target: SLK (human) (UniProt Q9H2G2)
[9] = target: IGF1R (human) (UniProt P08069)
[10] = target: EPHA2 (human) (UniProt P29317)
[11] = target: MYO3B (human) (UniProt Q8WXR4)
[12] = target: PRKD1 (human) (UniProt Q15139)
[13] = target: FLT1 (human) (UniProt P17948)
[14] = target: BMPR2 (human) (UniProt Q13873)
[15] = target: MKNK2 (human) (UniProt Q9HBH9)
[16] = target: CHEK1 (human) (UniProt O14757)
[17] = target: MAP3K10 (human) (UniProt Q02779)
[18] = target: HIPK1 (human) (UniProt Q86Z02)
[19] = target: RPS6KA6 KD1 (human) (UniProt Q9UK32)
[20] = target: CAMK4 (human) (UniProt Q16566)
[21] = target: MAP2K3 (human) (UniProt P46734)
[22] = target: ROCK2 (human) (UniProt O75116)
[23] = target: PRKAA1 (human) (UniProt Q13131)
[24] = target: TXK (human) (UniProt P42681)
[25] = target: CAMK1G (human) (UniProt Q96NX5)
[26] = target: STK32B (human) (UniProt Q9NY57)
[27] = target: FGFR1 (human) (UniProt P11362)
[28] = target: CLK2 (human) (UniProt P49760)
[29] = target: LATS2 (human) (UniProt Q9NRM7)
[30] = target: CHUK (human) (UniProt O15111)
[31] = target: MERTK (human) (UniProt Q12866)
[32] = target: CLK1 (human) (UniProt P49759)
[33] = target: MAP3K5 (human) (UniProt Q99683)
[34] = target: DAPK2 (human) (UniProt Q9UIK4)
[35] = target: DCLK3 (human) (UniProt Q9C098)
[36] = target: RPS6KA1 KD1 (human) (UniProt Q15418)
[37] = target: PRKD2 (human) (UniProt Q9BZL6)
[38] = target: INSR (human) (UniProt P06213)
[39] = target: PKN2 (human) (UniProt Q16513)
[40] = target: CAMK1D (human) (UniProt Q8IU85)

Chain of DAPK2 (human) (Q9UIK4 whole entry, looked up): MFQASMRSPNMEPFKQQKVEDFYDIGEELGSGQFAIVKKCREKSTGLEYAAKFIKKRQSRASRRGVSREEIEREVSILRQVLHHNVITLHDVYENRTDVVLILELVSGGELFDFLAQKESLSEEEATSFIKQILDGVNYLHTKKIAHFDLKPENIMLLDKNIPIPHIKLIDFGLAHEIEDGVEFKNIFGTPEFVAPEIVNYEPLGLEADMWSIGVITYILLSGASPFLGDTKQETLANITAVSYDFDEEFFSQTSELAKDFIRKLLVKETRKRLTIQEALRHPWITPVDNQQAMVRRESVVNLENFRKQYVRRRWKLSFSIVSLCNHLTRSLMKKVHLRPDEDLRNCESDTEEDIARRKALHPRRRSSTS
Chain of SLK (human) (Q9H2G2 whole entry, looked up): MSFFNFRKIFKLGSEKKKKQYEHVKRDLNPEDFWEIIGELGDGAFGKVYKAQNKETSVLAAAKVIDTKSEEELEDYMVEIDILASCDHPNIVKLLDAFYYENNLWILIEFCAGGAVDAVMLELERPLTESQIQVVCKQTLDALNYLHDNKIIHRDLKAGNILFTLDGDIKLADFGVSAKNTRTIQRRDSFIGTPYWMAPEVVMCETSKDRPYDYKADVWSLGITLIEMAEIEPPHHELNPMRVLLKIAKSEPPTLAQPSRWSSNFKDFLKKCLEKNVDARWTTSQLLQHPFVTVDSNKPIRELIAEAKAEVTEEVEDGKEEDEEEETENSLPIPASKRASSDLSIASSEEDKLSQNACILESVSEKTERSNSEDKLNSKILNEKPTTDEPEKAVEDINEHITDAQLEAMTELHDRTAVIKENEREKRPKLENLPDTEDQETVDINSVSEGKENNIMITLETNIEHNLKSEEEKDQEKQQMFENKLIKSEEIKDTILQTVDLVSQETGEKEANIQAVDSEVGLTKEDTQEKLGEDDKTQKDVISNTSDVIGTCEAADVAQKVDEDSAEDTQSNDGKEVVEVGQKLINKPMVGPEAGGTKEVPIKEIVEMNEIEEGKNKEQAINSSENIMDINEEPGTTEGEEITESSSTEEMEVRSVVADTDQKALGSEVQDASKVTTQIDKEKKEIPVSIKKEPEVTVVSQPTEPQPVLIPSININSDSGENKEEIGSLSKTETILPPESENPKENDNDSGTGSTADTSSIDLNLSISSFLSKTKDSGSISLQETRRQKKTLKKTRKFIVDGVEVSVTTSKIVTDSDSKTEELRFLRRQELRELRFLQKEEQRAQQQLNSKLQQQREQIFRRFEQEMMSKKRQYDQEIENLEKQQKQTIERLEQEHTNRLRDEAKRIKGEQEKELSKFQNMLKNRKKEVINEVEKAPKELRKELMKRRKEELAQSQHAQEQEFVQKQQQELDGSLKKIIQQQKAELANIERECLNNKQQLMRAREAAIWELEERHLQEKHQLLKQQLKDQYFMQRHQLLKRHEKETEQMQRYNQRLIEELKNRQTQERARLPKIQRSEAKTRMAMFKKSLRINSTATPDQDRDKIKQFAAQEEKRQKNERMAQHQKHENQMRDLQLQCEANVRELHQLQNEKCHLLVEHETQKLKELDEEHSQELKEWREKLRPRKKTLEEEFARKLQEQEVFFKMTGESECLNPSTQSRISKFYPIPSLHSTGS
Chain of MUSK (human) (O15146 whole entry, looked up): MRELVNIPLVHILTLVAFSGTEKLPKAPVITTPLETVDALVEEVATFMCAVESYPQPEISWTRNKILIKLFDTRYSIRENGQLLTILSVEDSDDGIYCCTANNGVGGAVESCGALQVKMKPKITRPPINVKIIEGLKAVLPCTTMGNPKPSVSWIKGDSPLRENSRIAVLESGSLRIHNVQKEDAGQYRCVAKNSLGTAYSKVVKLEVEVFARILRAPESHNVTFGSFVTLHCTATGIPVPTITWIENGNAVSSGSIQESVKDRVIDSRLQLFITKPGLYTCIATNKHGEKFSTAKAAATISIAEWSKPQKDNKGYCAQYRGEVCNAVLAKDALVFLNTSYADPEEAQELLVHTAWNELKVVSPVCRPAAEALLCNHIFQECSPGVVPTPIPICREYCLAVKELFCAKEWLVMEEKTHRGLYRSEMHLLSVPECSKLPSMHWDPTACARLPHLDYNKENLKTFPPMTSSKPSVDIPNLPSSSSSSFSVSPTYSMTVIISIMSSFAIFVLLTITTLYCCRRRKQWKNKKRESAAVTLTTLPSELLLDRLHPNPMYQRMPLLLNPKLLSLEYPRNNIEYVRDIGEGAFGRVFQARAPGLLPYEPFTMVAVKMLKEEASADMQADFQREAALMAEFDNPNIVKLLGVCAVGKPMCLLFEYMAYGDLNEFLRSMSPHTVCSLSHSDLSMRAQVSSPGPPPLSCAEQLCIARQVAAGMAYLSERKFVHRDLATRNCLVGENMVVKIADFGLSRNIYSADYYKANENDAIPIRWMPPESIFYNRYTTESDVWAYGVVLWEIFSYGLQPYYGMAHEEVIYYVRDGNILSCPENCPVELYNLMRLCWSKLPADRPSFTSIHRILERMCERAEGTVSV
Chain of PIK3C2B (human) (O00750 whole entry, looked up): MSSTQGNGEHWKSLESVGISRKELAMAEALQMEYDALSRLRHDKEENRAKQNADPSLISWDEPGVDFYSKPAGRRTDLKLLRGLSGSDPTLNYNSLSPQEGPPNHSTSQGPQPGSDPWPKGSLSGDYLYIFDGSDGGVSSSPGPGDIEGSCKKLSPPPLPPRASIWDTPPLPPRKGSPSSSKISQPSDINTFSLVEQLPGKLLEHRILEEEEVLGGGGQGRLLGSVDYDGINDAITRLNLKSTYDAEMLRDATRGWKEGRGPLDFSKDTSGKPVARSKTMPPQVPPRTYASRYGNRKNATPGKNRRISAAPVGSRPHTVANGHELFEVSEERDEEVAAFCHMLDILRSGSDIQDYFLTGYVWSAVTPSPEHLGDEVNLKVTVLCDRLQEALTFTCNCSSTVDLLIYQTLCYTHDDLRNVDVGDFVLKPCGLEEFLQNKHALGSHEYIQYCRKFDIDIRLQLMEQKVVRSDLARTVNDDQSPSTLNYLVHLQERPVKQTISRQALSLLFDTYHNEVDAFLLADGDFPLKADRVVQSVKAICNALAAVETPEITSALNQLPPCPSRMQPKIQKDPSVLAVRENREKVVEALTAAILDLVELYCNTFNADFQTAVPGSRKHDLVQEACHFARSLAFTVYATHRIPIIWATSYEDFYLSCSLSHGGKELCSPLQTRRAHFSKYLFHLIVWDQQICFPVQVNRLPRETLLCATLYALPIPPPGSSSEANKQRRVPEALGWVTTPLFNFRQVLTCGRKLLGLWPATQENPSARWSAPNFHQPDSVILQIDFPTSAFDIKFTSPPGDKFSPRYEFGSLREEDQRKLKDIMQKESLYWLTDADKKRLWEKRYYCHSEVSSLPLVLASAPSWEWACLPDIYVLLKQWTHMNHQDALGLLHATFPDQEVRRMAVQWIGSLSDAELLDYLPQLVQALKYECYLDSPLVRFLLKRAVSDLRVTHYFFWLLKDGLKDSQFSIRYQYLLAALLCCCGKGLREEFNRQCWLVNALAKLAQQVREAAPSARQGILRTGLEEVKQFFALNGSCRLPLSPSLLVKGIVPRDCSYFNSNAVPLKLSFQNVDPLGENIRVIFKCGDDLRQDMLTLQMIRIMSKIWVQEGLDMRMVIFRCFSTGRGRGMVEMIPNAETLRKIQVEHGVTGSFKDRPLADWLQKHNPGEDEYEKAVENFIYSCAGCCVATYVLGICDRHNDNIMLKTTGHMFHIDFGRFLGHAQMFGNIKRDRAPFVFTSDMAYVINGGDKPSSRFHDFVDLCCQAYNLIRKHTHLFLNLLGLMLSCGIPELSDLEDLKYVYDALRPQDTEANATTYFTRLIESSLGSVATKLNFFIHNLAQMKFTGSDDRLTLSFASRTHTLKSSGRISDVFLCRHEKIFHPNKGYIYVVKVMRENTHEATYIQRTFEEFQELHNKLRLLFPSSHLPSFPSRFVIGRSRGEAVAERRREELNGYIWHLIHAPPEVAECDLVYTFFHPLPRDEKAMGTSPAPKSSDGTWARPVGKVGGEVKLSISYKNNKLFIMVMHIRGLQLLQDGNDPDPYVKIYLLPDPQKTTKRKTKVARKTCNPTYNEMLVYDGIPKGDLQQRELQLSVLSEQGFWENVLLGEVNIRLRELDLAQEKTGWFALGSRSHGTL
Chain of FGR (human) (P09769 whole entry, looked up): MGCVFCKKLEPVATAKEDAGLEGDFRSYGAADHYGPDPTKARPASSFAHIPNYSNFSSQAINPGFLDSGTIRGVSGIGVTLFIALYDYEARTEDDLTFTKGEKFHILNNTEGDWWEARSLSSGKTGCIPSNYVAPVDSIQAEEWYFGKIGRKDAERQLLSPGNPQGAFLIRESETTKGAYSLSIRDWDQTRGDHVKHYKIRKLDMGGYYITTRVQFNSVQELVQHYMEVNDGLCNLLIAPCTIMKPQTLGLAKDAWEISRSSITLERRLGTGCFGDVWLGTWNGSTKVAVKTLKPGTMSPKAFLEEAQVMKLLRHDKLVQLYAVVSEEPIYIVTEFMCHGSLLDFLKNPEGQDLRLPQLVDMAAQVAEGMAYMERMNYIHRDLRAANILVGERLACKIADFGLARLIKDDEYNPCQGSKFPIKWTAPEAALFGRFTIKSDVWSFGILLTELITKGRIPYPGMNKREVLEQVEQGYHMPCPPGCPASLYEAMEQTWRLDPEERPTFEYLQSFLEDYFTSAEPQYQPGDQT
Chain of MKNK2 (human) (Q9HBH9 whole entry, looked up): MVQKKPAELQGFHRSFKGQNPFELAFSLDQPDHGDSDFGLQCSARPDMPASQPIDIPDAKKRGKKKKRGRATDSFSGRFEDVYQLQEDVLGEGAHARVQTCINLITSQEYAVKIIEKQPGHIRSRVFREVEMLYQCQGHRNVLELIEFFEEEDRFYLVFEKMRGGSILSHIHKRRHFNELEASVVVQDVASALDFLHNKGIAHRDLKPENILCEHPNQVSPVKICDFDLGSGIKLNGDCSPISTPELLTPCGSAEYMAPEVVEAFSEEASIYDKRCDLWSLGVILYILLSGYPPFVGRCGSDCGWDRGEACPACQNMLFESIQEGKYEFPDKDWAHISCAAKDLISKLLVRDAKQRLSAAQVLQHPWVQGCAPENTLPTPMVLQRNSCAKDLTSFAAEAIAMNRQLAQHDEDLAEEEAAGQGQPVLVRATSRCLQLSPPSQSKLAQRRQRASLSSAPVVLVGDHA

SMILES: CC[C@@H]1C(=O)N(C)c2cnc(Nc3ccc(C(=O)NC4CCN(C)CC4)cc3OC)nc2N1C1CCCC1
- kinase still bound, per cent of control [1]: 100%
- kinase still bound, per cent of control [2]: 100%
- kinase still bound, per cent of control [3]: 100%
- kinase still bound, per cent of control [4]: 100%
- kinase still bound, per cent of control [5]: 100%
- kinase still bound, per cent of control [6]: 100%
- kinase still bound, per cent of control [7]: 100%
- kinase still bound, per cent of control [8]: 3%
- kinase still bound, per cent of control [9]: 100%
- kinase still bound, per cent of control [10]: 100%
- kinase still bound, per cent of control [11]: 100%
- kinase still bound, per cent of control [12]: 7%
- kinase still bound, per cent of control [13]: 100%
- kinase still bound, per cent of control [14]: 100%
- kinase still bound, per cent of control [15]: 100%
- kinase still bound, per cent of control [16]: 100%
- kinase still bound, per cent of control [17]: 100%
- kinase still bound, per cent of control [18]: 100%
- kinase still bound, per cent of control [19]: 100%
- kinase still bound, per cent of control [20]: 100%
- kinase still bound, per cent of control [21]: 100%
- kinase still bound, per cent of control [22]: 100%
- kinase still bound, per cent of control [23]: 100%
- kinase still bound, per cent of control [24]: 100%
- kinase still bound, per cent of control [25]: 100%
- kinase still bound, per cent of control [26]: 100%
- kinase still bound, per cent of control [27]: 100%
- kinase still bound, per cent of control [28]: 5.4%
- kinase still bound, per cent of control [29]: 100%
- kinase still bound, per cent of control [30]: 100%
- kinase still bound, per cent of control [31]: 100%
- kinase still bound, per cent of control [32]: 100%
- kinase still bound, per cent of control [33]: 100%
- kinase still bound, per cent of control [34]: 16%
- kinase still bound, per cent of control [35]: 100%
- kinase still bound, per cent of control [36]: 100%
- kinase still bound, per cent of control [37]: 16%

SMILES: CCOc1cc2ncc(C#N)c(Nc3ccc(OCc4ccccn4)c(Cl)c3)c2cc1NC(=O)/C=C/CN(C)C
- kinase still bound, per cent of control [1]: 100%
- kinase still bound, per cent of control [2]: 52%
- kinase still bound, per cent of control [3]: 0.4%
- kinase still bound, per cent of control [4]: 100%
- kinase still bound, per cent of control [5]: 100%
- kinase still bound, per cent of control [6]: 40%
- kinase still bound, per cent of control [7]: 100%
- kinase still bound, per cent of control [8]: 1.4%
- kinase still bound, per cent of control [9]: 100%
- kinase still bound, per cent of control [10]: 94%
- kinase still bound, per cent of control [11]: 100%
- kinase still bound, per cent of control [12]: 74%
- kinase still bound, per cent of control [38]: 46%
- kinase still bound, per cent of control [13]: 95%
- kinase still bound, per cent of control [14]: 78%
- kinase still bound, per cent of control [15]: 99%
- kinase still bound, per cent of control [16]: 65%
- kinase still bound, per cent of control [17]: 88%
- kinase still bound, per cent of control [18]: 71%
- kinase still bound, per cent of control [19]: 86%
- kinase still bound, per cent of control [20]: 100%
- kinase still bound, per cent of control [39]: 72%
- kinase still bound, per cent of control [21]: 100%
- kinase still bound, per cent of control [22]: 86%
- kinase still bound, per cent of control [23]: 79%
- kinase still bound, per cent of control [24]: 86%
- kinase still bound, per cent of control [25]: 100%
- kinase still bound, per cent of control [26]: 73%
- kinase still bound, per cent of control [27]: 100%
- kinase still bound, per cent of control [28]: 100%
- kinase still bound, per cent of control [29]: 100%
- kinase still bound, per cent of control [30]: 81%
- kinase still bound, per cent of control [31]: 8.4%
- kinase still bound, per cent of control [32]: 84%
- kinase still bound, per cent of control [33]: 100%
- kinase still bound, per cent of control [34]: 87%
- kinase still bound, per cent of control [35]: 100%
- kinase still bound, per cent of control [36]: 57%
- kinase still bound, per cent of control [37]: 50%

SMILES: O=C(NOC[C@H](O)CO)c1ccc(F)c(F)c1Nc1ccc(I)cc1F
- kinase still bound, per cent of control [1]: 89%
- kinase still bound, per cent of control [2]: 97%
- kinase still bound, per cent of control [4]: 68%
- kinase still bound, per cent of control [5]: 100%
- kinase still bound, per cent of control [6]: 95%
- kinase still bound, per cent of control [7]: 69%
- kinase still bound, per cent of control [8]: 93%
- kinase still bound, per cent of control [9]: 87%
- kinase still bound, per cent of control [10]: 88%
- kinase still bound, per cent of control [11]: 99%
- kinase still bound, per cent of control [12]: 100%
- kinase still bound, per cent of control [38]: 92%
- kinase still bound, per cent of control [13]: 94%
- kinase still bound, per cent of control [14]: 92%
- kinase still bound, per cent of control [15]: 100%
- kinase still bound, per cent of control [16]: 74%
- kinase still bound, per cent of control [17]: 100%
- kinase still bound, per cent of control [18]: 91%
- kinase still bound, per cent of control [19]: 75%
- kinase still bound, per cent of control [20]: 100%
- kinase still bound, per cent of control [39]: 100%
- kinase still bound, per cent of control [21]: 89%
- kinase still bound, per cent of control [22]: 100%
- kinase still bound, per cent of control [23]: 100%
- kinase still bound, per cent of control [24]: 100%
- kinase still bound, per cent of control [25]: 100%
- kinase still bound, per cent of control [27]: 100%
- kinase still bound, per cent of control [28]: 96%
- kinase still bound, per cent of control [29]: 74%
- kinase still bound, per cent of control [30]: 100%
- kinase still bound, per cent of control [31]: 100%
- kinase still bound, per cent of control [32]: 95%
- kinase still bound, per cent of control [33]: 91%
- kinase still bound, per cent of control [34]: 100%
- kinase still bound, per cent of control [40]: 89%
- kinase still bound, per cent of control [35]: 100%
- kinase still bound, per cent of control [36]: 100%
- kinase still bound, per cent of control [37]: 100%

SMILES: CCC(=O)N1CCN(c2ccc(-n3c(=O)ccc4cnc5ccc(-c6cnc7ccccc7c6)cc5c43)cc2C(F)(F)F)CC1
- kinase still bound, per cent of control [1]: 100%
- kinase still bound, per cent of control [2]: 100%
- kinase still bound, per cent of control [3]: 100%
- kinase still bound, per cent of control [4]: 100%
- kinase still bound, per cent of control [5]: 25%
- kinase still bound, per cent of control [6]: 78%
- kinase still bound, per cent of control [7]: 100%
- kinase still bound, per cent of control [8]: 94%
- kinase still bound, per cent of control [9]: 94%
- kinase still bound, per cent of control [10]: 59%
- kinase still bound, per cent of control [11]: 100%
- kinase still bound, per cent of control [12]: 99%
- kinase still bound, per cent of control [38]: 7.6%
- kinase still bound, per cent of control [13]: 79%
- kinase still bound, per cent of control [14]: 59%
- kinase still bound, per cent of control [15]: 54%
- kinase still bound, per cent of control [17]: 99%
- kinase still bound, per cent of control [18]: 63%
- kinase still bound, per cent of control [19]: 66%
- kinase still bound, per cent of control [20]: 90%
- kinase still bound, per cent of control [39]: 65%
- kinase still bound, per cent of control [21]: 80%
- kinase still bound, per cent of control [22]: 50%
- kinase still bound, per cent of control [23]: 91%
- kinase still bound, per cent of control [24]: 54%
- kinase still bound, per cent of control [25]: 74%
- kinase still bound, per cent of control [26]: 87%
- kinase still bound, per cent of control [27]: 96%
- kinase still bound, per cent of control [28]: 65%
- kinase still bound, per cent of control [29]: 100%
- kinase still bound, per cent of control [30]: 41%
- kinase still bound, per cent of control [31]: 53%
- kinase still bound, per cent of control [32]: 49%
- kinase still bound, per cent of control [33]: 100%
- kinase still bound, per cent of control [40]: 88%
- kinase still bound, per cent of control [35]: 97%
- kinase still bound, per cent of control [36]: 68%
- kinase still bound, per cent of control [37]: 100%
